Data taken from patent publication US20230398130A1, “METHODS AND COMPOSITIONS FOR DIFFERENTIATING STEM CELLS” (Massachusetts Institute of Technology, priority 2020, published 2023).

How the values were obtained:
[1] = test system: ISC-enriched organoids; assay: Primary screen, 384-well 2.5-D organoid differentiation (ENR+CD, 6 days): basal lysozyme secretion (LYZ.NS); assay type: cell-based, murine; conditions: strictly standardized mean difference, primary screen
Text: High-throughput screening.

[2] = test system: ISC-enriched organoids; assay: Secondary (validation) screen, 384-well 2.5-D, ENR+CD 6 days, n=8 wells, vs ENR+CD+DMSO control: ATP (CTG); assay type: cell-based, murine
[3] = test system: ISC-enriched organoids; assay: Secondary (validation) screen, 384-well 2.5-D, ENR+CD 6 days, n=8 wells, vs ENR+CD+DMSO control: carbachol-induced lysozyme secretion (LYZ.S); assay type: cell-based, murine
[4] = test system: lysozyme (LYZ); assay: Western blotting of lysozyme in 3D-cultured intestinal organoids; assay type: cell-based, murine; conditions: organoids cultured 6 days in ENR+CV, ENR+CD or ENR
Text: Western blotting. ISC-enriched organoids cultured in 3D Matrigel with ENRCV media were passaged to 24-well plate in 3D Matrigel with ENRCV. At day zero, media were replaced to ENR or ENRCD with or without indicated compounds, and media were replaced every other day. At day six, cells were harvested from Matrigel by mechanical disruption and suspended in basal media. Cell pellets were lysed with Pierce© IP lysis buffer (ThermoFisher, 87787) containing Halt™ Protease Inhibitor Cocktail, EDTA-Free (ThermoFisher, 87785) after 3-minute centrifuge at 300×g at 4° C. Cell extracts were resolved by NuPAGE© SDS-PAGE Gel system (ThermoFisher) and electroblotted onto polyvinylidene difluoride membranes using Criterion™ Blotter (Biorad). The membranes were blocked with 2% Blotting-Grade Blocker (Biorad, 1706404) in TBS-T (50 mM Tris-HCl, 150 mM NaCl, and 0.1% Tween 20, pH 8.0) and then probed with appropriate antibodies. Detection was performed using ECL Select™ Western Blotting Detection Reagent (Amersham, 45-000-999) and ImageQuant LAS4000 (GE Healthcare).
Western blotting. Organoid-containing gel was homogenized in basal medium and centrifuged at 300 rcf for 3 min. Organoid pellet was lysed with ice-cold Pierce IP Lysis Buffer (Thermo Fisher Scientific, #87787) containing Halt Protease Inhibitor Cocktail, EDTA-Free (Thermo Fisher Scientific, #87785) and incubated on ice for 20 min. The lysate was centrifuged at 17,000 rcf for 10 min, and the supernatant was combined with NuPAGE LDS Sample Buffer (Thermo Fisher Scientific, NP0007). Protein concentration was determined by Pierce 660 nm Protein Assay (Thermo Fisher Scientific, #22660) and normalized to the lowest concentration among each sample set. […] Chemiluminescent signals were detected by LAS4000 (GE Healthcare) using Amersham ECL Select Western Blotting Detection Reagent (GE Healthcare, #45-000-999), and total protein signals were obtained by Odyssey Imaging System (LI-COR Biosciences) using REVERT Total Protein Stain Kit (LI-COR Biosciences, #926-11010).

[5] = test system: Paneth cells; assay: Immunofluorescent imaging of organoids: LYZ+ cells per organoid area; assay type: cell-based, murine
Description: Immunofluorescent imaging. For immunofluorescence staining of organoids, intestinal organoids in Matrigel were fixed with 4% paraformaldehyde, then transferred to centrifuge tube. After washing with PBS, the isolated organoids were permeabilized with 1% Triton X followed by incubation with blocking buffer (1% BSA+3% Donkey Serum+0.2% Triton X in PBS) at RT. The organoids were then stained with primary antibodies and fluorescent dye-labeled secondary antibodies as well as with DAPI. Slides were covered with […]® Mounting Media (VECTOR). The following primary and secondary antibodies were used for the staining: rabbit anti-Lysozyme (1:1000, Thermo Fisher Scientific), rat anti-E-cadherin (1:1000, Thermo Fisher Scientific), Alexa Fluor 488 and 568 secondary antibodies (1:1000, Invitrogen). Images were acquired with a confocal laser scanning microscope (Nikon Eclipse 90i). For the analysis of Lysozyme+ cells per organoid area, the number of counted Lysozyme+ cells were normalized to measured organoid surface area. Image J was used for the data analysis.

[6] = test system: human small intestinal organoids; assay: Lysozyme secretion assay, stem cell-enriched human small intestinal organoids; assay type: cell-based; conditions: increasing KPT-330 concentrations, 6 days, three duodenal donors
Description: To extend the observations from the murine organoid system, Applicants sought to examine how XPO1 inhibition via KPT-330 may effect human small intestinal stem cells by utilizing a stem-cell enriched human small intestinal organoid model^46 (see Methods).
Human crypt isolation and organoid culture. Samples from adult human duodenum were collected for organoid culture in accordance with MGH IRB guidance. Human donor tissue was non-inflamed excess tissue collected during bulk surgical resection via MGH pathology. Crypts were isolated from bulk resections as follows. Bulk resections were cut into approximately 0.25 cm sections from epithelial surface, and washed in PBSO repeatedly by gently pipetting the fragments using a 10-ml pipette until the supernatant was clear. Fragments were rocked on ice with crypt isolation buffer (10 mM EDTA, 10 mM HEPES, 2% FCS in PBSO) for 30 min. After isolation buffer was removed, fragments were washed with cold PBSO by vigorous shaking to release the crypts, this process was repeated with reserved crypt-laden supernatant fractions 4-6 times or until supernatant was free of intact crypts (visual inspection). […]
Lysozyme secretion assay. […] The solution was replaced to a 96-well white microplate, and luminescent signals were measured by a microplate reader (infinite M200, Tecan).

SMILES: O=C(/C=C\n1cnc(-c2cc(C(F)(F)F)cc(C(F)(F)F)c2)n1)NNc1cnccn1 [KPT-330]
- SSMD.LYZ.NS ([1]; 1st of the 4 dose lines of the treatment (dose not given)): 1.021
- SSMD.LYZ.NS ([1]; 2nd of the 4 dose lines of the treatment (dose not given)): −1.822
- SSMD.LYZ.NS ([1]; 3rd of the 4 dose lines of the treatment (dose not given)): −1.556
- SSMD.LYZ.NS ([1]; 4th of the 4 dose lines of the treatment (dose not given)): −1.714
- Z.CTG ([2]; Dose 0.02 uM): 1.135
- repSSMD.CTG ([2]; Dose 0.02 uM): 0.959
- Z.CTG ([2]; Dose 0.04 uM): 0.263
- repSSMD.CTG ([2]; Dose 0.04 uM): 0.179
- Z.CTG ([2]; dose 0.08 uM): 1.273
- repSSMD.CTG ([2]; dose 0.08 uM): 0.916
- Z.LYZ.S ([3]; Dose 0.02 uM): −0.028
- repSSMD.LYZ.S ([3]; Dose 0.02 uM): −0.044
- Z.LYZ.S ([3]; Dose 0.04 uM): −0.587
- repSSMD.LYZ.S ([3]; Dose 0.04 uM): −0.955
- Z.LYZ.S ([3]; dose 0.08 uM): 1.031
- repSSMD.LYZ.S ([3]; dose 0.08 uM): 1.678
- increase in LYZ.S (stimulated LYZ secretion) relative to ENR+CD control ([3]; validated doses, secondary screen): 50-75%
- LYZ abundance per unit protein (Western blotting) [4]: appreciably increase LYZ abundance
- LYZ+ Paneth cell number (IF imaging) ([5]; ENR with or without 160 nM KPT-330, 3 days): pro-Paneth differentiation effect is also observed
- LYZ+ Paneth cell number (IF imaging) ([5]; ENR+CD with 160 nM KPT-330, 6 days): an increase in Paneth cell number
- normalized LYZ secretion [6]: normalized LYZ secretion significantly increases with dose
